Entries after “also recorded” stand apart in the source; their conditions may differ. Ends that are not written are not given here.
Legend:
db/db mice = db/db mice model of type 2 diabetes, chronic treatment; type: in vivo, mouse; conditions: 10 mg/kg
Aβ1-40 and Aβ1-42 levels = experiment: Aβ1-40 and Aβ1-42 ELISA in brain homogenate fractions and CSF of hAPP Tg mice; type: in vivo, mouse
Description: a) METHODS • i) Introduction • The study was designed to evaluate the efficacy of the test substance (XG-102, SEQ ID NO: 233) on behavioral, biochemical and histological markers using 5 months (±2 weeks) old female hAPP Tg mice. Therefore, mice were treated every two or three weeks up to 4 months and in the end of the treatment period behavior was evaluated in the Morris Water Maze. At sacrifice brain, CSF and blood were collected. Aβ40 and Aβ42 levels were determined in four different brain homogenate fractions as well as in CSF of Tg mice. Plaque load was quantified in the cortex and the hippocampus of 8 Tg animals per treatment group.
iv) Treatment • […] female hAPP transgenic mice were treated with either 0.1 mg/kg b.w./every two weeks or 10 mg/kg b.w./every three weeks of the test substance XG-102 (SEQ ID NO: 233) in two different dosages (n=12/group) or treated with the vehicle (n=12) s.c. once every three weeks over four months.
vi) Tissue Sampling • At the end of the treatment period, and following all behavioral testing, all remaining mice (n=28) were sacrificed. Therefore, all mice were sedated by standard inhalation anesthesia (Isofluran, Baxter) as described in SOP MET030. Cerebrospinal fluid (CSF) was obtained by blunt dissection and exposure of the foramen magnum. Upon exposure, a Pasteur pipette was inserted to the approximate depth of 0.3-1 mm into the foramen magnum. CSF was collected by suctioning and capillary action until flow fully ceases. Two aliquots of each sample were immediately frozen and kept at −80° C. until ready for further analysis with ELISA technique. After CSF sampling, each mouse was placed in dorsal recumbence, thorax was opened and a 26-gauge needle attached to a 1 cc syringe was inserted into the right cardiac ventricular chamber. Light suction was applied to the needle and blood was collected into EDTA and consequently used to obtain plasma. […]
vii) Determination of Aβ1-40 and Aβ1-42 • In four different brain homogenate fractions of each Tg mouse as well as in CSF samples the Aβ1-40 and Aβ1-42 levels were evaluated with ELISA technique. […]

With “dqsrpvqpflnIttprkprpprrrqrrkkrg (DQSRPVQPFLNLTTPRKPRPPRRRQRRKKRG; not fully specified (some residues); printed as dqsrpvqpflnIttprkprpprrrqrrkkrg) [XG-102]” the “plasma levels of insulin, MCP-1, IL-6, tPAI-1, TNF” value (db/db mice; day 57, 77 and 108) was “no significant effects”, the plasma resistin (db/db mice; day 77 and 108) was “significantly higher” and the “24 hour food and water intake, urine and faeces production (metabolic cages)” value (db/db mice; study day 68) was “no significant effects”. For the same substance, the “Aβ1-42 levels in Triton X-100 fraction” value (Aβ1-40 and Aβ1-42 levels; 0.1 mg/kg) was “a significant reduction compared to the vehicle group; also recorded: a decrease in the Triton X-100 fraction”, the “CSF Aβ1-40 and Aβ1-42 levels” value (Aβ1-40 and Aβ1-42 levels; 0.1 and 10 mg/kg) was “significantly decreased in CSF compared to vehicle group” and the “brain homogenate Aβ1-40 levels” value (Aβ1-40 and Aβ1-42 levels; four brain homogenate fractions) was “did not affect brain homogenate Aβ1-40 levels”.
